Assay results: US6355799B1, “Substituted benzene compounds, process for their preparation, and herbicidal and defoliant compositions containing them” (ISK Americas Incorporated, priority 1997, dated 2002)

Key:
Type in all cases: in vivo
[1] = test system: upland rice (Oryza sp., var. Tebonnet, RICE); assay: Pre-emerge test, crop safety; conditions: pre-emerge, rated 14 days after application, 0 = no damage, 100 = complete death
Outline: (§1)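 Compounds in acetone were track-sprayed at 187 l/ha, 15–1000 g ai/ha, onto sandy loam pots. Pre-emerge seeds were sown one day before spraying, with surface watering afterwards. Post-emerge plants were at the 2–3 leaf stage and sprayed with 0.25% v/v non-ionic surfactant. Injury was rated 0–100 at 14 days.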

[2] = test system: field corn (Zea mays L., var. Dekalb 535, CORN); assay: Pre-emerge test, crop safety; conditions: pre-emerge, rated 14 days after application, 0 = no damage, 100 = complete death
Outline: as §1

[3] = test system: upland rice (Oryza sp., var. Tebonnet, RICE); assay: Post-emerge test, crop safety; conditions: phytotoxicity rating 0-100 (0 no damage, 100 complete death), 14 days after application
Outline: (§2)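 Each test used a mechanized track sprayer delivering 187 l/ha of acetone solution at 15–1000 g ai/ha. Post-emerge foliage at 2–3 leaves was treated with added 0.25% v/v non-ionic surfactant and bottom-watered only. Injury was assessed on day 14, where 100 means total kill.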

[4] = test system: field corn (Zea mays L., var. Dekalb 535, CORN); assay: Post-emerge test, crop safety; conditions: phytotoxicity rating 0-100 (0 no damage, 100 complete death), 14 days after application
Outline: as §2

[5] = test system: green foxtail (Setaria viridis, SETVI); assay: Pre-emerge test, greenhouse herbicide activity screening; conditions: pre-emerge, rated 14 days after application, 0 = no damage, 100 = complete death
Outline: (§3)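 Plants grown in 10 cm pots of sandy loam mix received acetone-dissolved compounds through a moving flat-fan nozzle. Doses ranged from 15 to 1000 g ai/ha. Pre-emerge pots were seeded one day earlier, post-emerge pots 8–21 days earlier. Fourteen days on, each pot was graded 0–100 for damage.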

[6] = test system: lambsquarters (Chenopodium album, CHEAL); assay: as above; conditions: pre-emerge, rated 14 days after application, 0 = no damage, 100 = complete death
Outline: as §3

[7] = test system: velvetleaf (Abutilon theophrasti, ABUTH); assay: as above; conditions: pre-emerge, rated 14 days after application, 0 = no damage, 100 = complete death
Outline: as §3

[8] = test system: johnsongrass (Sorghum halepense, SORHA); assay: as above; conditions: pre-emerge, rated 14 days after application, 0 = no damage, 100 = complete death
Outline: as §3

[9] = test system: large crabgrass (Digitaria sanguinalis, DIGSA); assay: as above; conditions: pre-emerge, rated 14 days after application, 0 = no damage, 100 = complete death
Outline: as §3

[10] = test system: sicklepod (Cassia obtusifolia, CASOB); assay: as above; conditions: pre-emerge, rated 14 days after application, 0 = no damage, 100 = complete death
Outline: as §3

[11] = test system: ivyleaf morningglory (Ipomoea hederacea, IPOHE); assay: as above; conditions: pre-emerge, rated 14 days after application, 0 = no damage, 100 = complete death
Outline: as §3

[12] = test system: barnyardgrass (Echinochloa crus-galli, ECHCG); assay: as above; conditions: pre-emerge, rated 14 days after application, 0 = no damage, 100 = complete death
Outline: as §3

[13] = test system: green foxtail (Setaria viridis, SETVI); assay: Post-emerge test, greenhouse herbicide activity screening; conditions: phytotoxicity rating 0-100 (0 no damage, 100 complete death), 14 days after application
Outline: (§4)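 Compounds in acetone were track-sprayed at 15–1000 g ai/ha: pre-emergence onto soil sown the previous day, then top-watered to incorporate and later bottom-watered; post-emergence onto 2–3 leaf plants with 0.25% v/v surfactant, bottom-watered only. Ratings on a 0–100 phytotoxicity scale were taken at day 14.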

[14] = test system: lambsquarters (Chenopodium album, CHEAL); assay: as above; conditions: phytotoxicity rating 0-100 (0 no damage, 100 complete death), 14 days after application
Outline: as §4

[15] = test system: velvetleaf (Abutilon theophrasti, ABUTH); assay: as above; conditions: phytotoxicity rating 0-100 (0 no damage, 100 complete death), 14 days after application
Outline: as §4

[16] = test system: johnsongrass (Sorghum halepense, SORHA); assay: as above; conditions: phytotoxicity rating 0-100 (0 no damage, 100 complete death), 14 days after application
Outline: as §4

[17] = test system: large crabgrass (Digitaria sanguinalis, DIGSA); assay: as above; conditions: phytotoxicity rating 0-100 (0 no damage, 100 complete death), 14 days after application
Outline: as §4

[18] = test system: sicklepod (Cassia obtusifolia, CASOB); assay: as above; conditions: phytotoxicity rating 0-100 (0 no damage, 100 complete death), 14 days after application
Outline: as §4

[19] = test system: ivyleaf morningglory (Ipomoea hederacea, IPOHE); assay: as above; conditions: phytotoxicity rating 0-100 (0 no damage, 100 complete death), 14 days after application
Outline: as §4

[20] = test system: barnyardgrass (Echinochloa crus-galli, ECHCG); assay: as above; conditions: phytotoxicity rating 0-100 (0 no damage, 100 complete death), 14 days after application
Outline: as §4

[21] = test system: redroot pigweed (Amaranthus retroflexus, AMARE); assay: as above; conditions: phytotoxicity rating 0-100 (0 no damage, 100 complete death), 14 days after application
Outline: as §4

[22] = test system: redroot pigweed (Amaranthus retroflexus, AMARE); assay: Pre-emerge test, greenhouse herbicide activity screening; conditions: pre-emerge, rated 14 days after application, 0 = no damage, 100 = complete death
Outline: as §3

COC(=O)C=CCOc1c(Cl)cc(F)c(-n2c(=O)cc(C(F)(F)F)n(C)c2=O)c1N [Compound 1-20]
Pre-emerge crop damage RICE (phytotoxicity rating, scale 0-100) ([1]; 63 g ai/ha): 60
Pre-emerge crop damage RICE (phytotoxicity rating, scale 0-100) ([1]; 250 g ai/ha): 70
Pre-emerge crop damage CORN (phytotoxicity rating, scale 0-100) ([2]; 63 g ai/ha): 15
Pre-emerge crop damage CORN (phytotoxicity rating, scale 0-100) ([2]; 250 g ai/ha): 65
Post-emerge Herbicidal Activity RICE (crop damage) ([3]; 63 g ai/ha): 20
Post-emerge Herbicidal Activity RICE (crop damage) ([3]; 250 g ai/ha): 50
Post-emerge Herbicidal Activity CORN (crop damage) ([4]; 63 g ai/ha): 10
Post-emerge Herbicidal Activity CORN (crop damage) ([4]; 250 g ai/ha): 40
Pre-emerge Herbicidal Activity SETVI (phytotoxicity rating, scale 0-100) ([5]; 63 g ai/ha): 80
Pre-emerge Herbicidal Activity SETVI (phytotoxicity rating, scale 0-100) ([5]; 250 g ai/ha): 100
Pre-emerge Herbicidal Activity CHEAL (phytotoxicity rating, scale 0-100) ([6]; 63 g ai/ha): 100
Pre-emerge Herbicidal Activity CHEAL (phytotoxicity rating, scale 0-100) ([6]; 250 g ai/ha): 100
Pre-emerge Herbicidal Activity ABUTH (phytotoxicity rating, scale 0-100) ([7]; 63 g ai/ha): 100
Pre-emerge Herbicidal Activity ABUTH (phytotoxicity rating, scale 0-100) ([7]; 250 g ai/ha): 100
Pre-emerge Herbicidal Activity SORHA (phytotoxicity rating, scale 0-100) ([8]; 63 g ai/ha): 30
Pre-emerge Herbicidal Activity SORHA (phytotoxicity rating, scale 0-100) ([8]; 250 g ai/ha): 70
Pre-emerge Herbicidal Activity DIGSA (phytotoxicity rating, scale 0-100) ([9]; 63 g ai/ha): 50
Pre-emerge Herbicidal Activity DIGSA (phytotoxicity rating, scale 0-100) ([9]; 250 g ai/ha): 90
Pre-emerge Herbicidal Activity CASOB (phytotoxicity rating, scale 0-100) ([10]; 63 g ai/ha): 100
Pre-emerge Herbicidal Activity CASOB (phytotoxicity rating, scale 0-100) ([10]; 250 g ai/ha): 100
Pre-emerge Herbicidal Activity IPOHE (phytotoxicity rating, scale 0-100) ([11]; 63 g ai/ha): 40
Pre-emerge Herbicidal Activity IPOHE (phytotoxicity rating, scale 0-100) ([11]; 250 g ai/ha): 100
Pre-emerge Herbicidal Activity ECHCG (phytotoxicity rating, scale 0-100) ([12]; 63 g ai/ha): 50
Pre-emerge Herbicidal Activity ECHCG (phytotoxicity rating, scale 0-100) ([12]; 250 g ai/ha): 100
Post-emerge Herbicidal Activity SETVI ([13]; 63 g ai/ha): 0
Post-emerge Herbicidal Activity SETVI ([13]; 250 g ai/ha): 60
Post-emerge Herbicidal Activity CHEAL ([14]; 63 g ai/ha): 90
Post-emerge Herbicidal Activity CHEAL ([14]; 250 g ai/ha): 100
Post-emerge Herbicidal Activity ABUTH ([15]; 63 g ai/ha): 100
Post-emerge Herbicidal Activity ABUTH ([15]; 250 g ai/ha): 100
Post-emerge Herbicidal Activity SORHA ([16]; 63 g ai/ha): 10
Post-emerge Herbicidal Activity SORHA ([16]; 250 g ai/ha): 70
Post-emerge Herbicidal Activity DIGSA ([17]; 63 g ai/ha): 10
Post-emerge Herbicidal Activity DIGSA ([17]; 250 g ai/ha): 20
Post-emerge Herbicidal Activity CASOB ([18]; 63 g ai/ha): 0
Post-emerge Herbicidal Activity CASOB ([18]; 250 g ai/ha): 50
Post-emerge Herbicidal Activity IPOHE ([19]; 63 g ai/ha): 100
Post-emerge Herbicidal Activity IPOHE ([19]; 250 g ai/ha): 100
Post-emerge Herbicidal Activity ECHCG ([20]; 63 g ai/ha): 30
Post-emerge Herbicidal Activity ECHCG ([20]; 250 g ai/ha): 80
Post-emerge Herbicidal Activity AMARE ([21]; 63 g ai/ha): 90
Post-emerge Herbicidal Activity AMARE ([21]; 250 g ai/ha): 100
Pre-emerge Herbicidal Activity AMARE (phytotoxicity rating, scale 0-100) ([22]; 63 g ai/ha): 100
Pre-emerge Herbicidal Activity AMARE (phytotoxicity rating, scale 0-100) ([22]; 250 g ai/ha): 100

Cn1c(C(F)(F)F)cc(=O)n(-c2c(F)cc(Cl)c(OCc3ccccc3)c2N)c1=O [Compound 1-22]
Pre-emerge crop damage RICE (phytotoxicity rating, scale 0-100) ([1]; 63 g ai/ha): 0
Pre-emerge crop damage RICE (phytotoxicity rating, scale 0-100) ([1]; 250 g ai/ha): 50
Pre-emerge crop damage CORN (phytotoxicity rating, scale 0-100) ([2]; 63 g ai/ha): 0
Pre-emerge crop damage CORN (phytotoxicity rating, scale 0-100) ([2]; 250 g ai/ha): 10
Post-emerge Herbicidal Activity RICE (crop damage) ([3]; 63 g ai/ha): 10
Post-emerge Herbicidal Activity RICE (crop damage) ([3]; 250 g ai/ha): 40
Post-emerge Herbicidal Activity CORN (crop damage) ([4]; 63 g ai/ha): 5
Post-emerge Herbicidal Activity CORN (crop damage) ([4]; 250 g ai/ha): 15
Pre-emerge Herbicidal Activity SETVI (phytotoxicity rating, scale 0-100) ([5]; 63 g ai/ha): 90
Pre-emerge Herbicidal Activity SETVI (phytotoxicity rating, scale 0-100) ([5]; 250 g ai/ha): 100
Pre-emerge Herbicidal Activity CHEAL (phytotoxicity rating, scale 0-100) ([6]; 63 g ai/ha): 95
Pre-emerge Herbicidal Activity CHEAL (phytotoxicity rating, scale 0-100) ([6]; 250 g ai/ha): 100
Pre-emerge Herbicidal Activity ABUTH (phytotoxicity rating, scale 0-100) ([7]; 63 g ai/ha): 100
Pre-emerge Herbicidal Activity ABUTH (phytotoxicity rating, scale 0-100) ([7]; 250 g ai/ha): 100
Pre-emerge Herbicidal Activity SORHA (phytotoxicity rating, scale 0-100) ([8]; 63 g ai/ha): 0
Pre-emerge Herbicidal Activity SORHA (phytotoxicity rating, scale 0-100) ([8]; 250 g ai/ha): 60
Pre-emerge Herbicidal Activity DIGSA (phytotoxicity rating, scale 0-100) ([9]; 63 g ai/ha): 0
Pre-emerge Herbicidal Activity DIGSA (phytotoxicity rating, scale 0-100) ([9]; 250 g ai/ha): 60
Pre-emerge Herbicidal Activity CASOB (phytotoxicity rating, scale 0-100) ([10]; 63 g ai/ha): 0
Pre-emerge Herbicidal Activity CASOB (phytotoxicity rating, scale 0-100) ([10]; 250 g ai/ha): 0
Pre-emerge Herbicidal Activity IPOHE (phytotoxicity rating, scale 0-100) ([11]; 63 g ai/ha): 0
Pre-emerge Herbicidal Activity IPOHE (phytotoxicity rating, scale 0-100) ([11]; 250 g ai/ha): 20
Pre-emerge Herbicidal Activity ECHCG (phytotoxicity rating, scale 0-100) ([12]; 63 g ai/ha): 0
Pre-emerge Herbicidal Activity ECHCG (phytotoxicity rating, scale 0-100) ([12]; 250 g ai/ha): 60
Post-emerge Herbicidal Activity SETVI ([13]; 63 g ai/ha): 0
Post-emerge Herbicidal Activity SETVI ([13]; 250 g ai/ha): 80
Post-emerge Herbicidal Activity CHEAL ([14]; 63 g ai/ha): 40
Post-emerge Herbicidal Activity CHEAL ([14]; 250 g ai/ha): 80
Post-emerge Herbicidal Activity ABUTH ([15]; 63 g ai/ha): 100
Post-emerge Herbicidal Activity ABUTH ([15]; 250 g ai/ha): 100
Post-emerge Herbicidal Activity SORHA ([16]; 63 g ai/ha): 0
Post-emerge Herbicidal Activity SORHA ([16]; 250 g ai/ha): 10
Post-emerge Herbicidal Activity DIGSA ([17]; 63 g ai/ha): 0
Post-emerge Herbicidal Activity DIGSA ([17]; 250 g ai/ha): 0
Post-emerge Herbicidal Activity CASOB ([18]; 63 g ai/ha): 0
Post-emerge Herbicidal Activity CASOB ([18]; 250 g ai/ha): 0
Post-emerge Herbicidal Activity IPOHE ([19]; 63 g ai/ha): 40
Post-emerge Herbicidal Activity IPOHE ([19]; 250 g ai/ha): 90
Post-emerge Herbicidal Activity ECHCG ([20]; 63 g ai/ha): 0
Post-emerge Herbicidal Activity ECHCG ([20]; 250 g ai/ha): 0
Post-emerge Herbicidal Activity AMARE ([21]; 63 g ai/ha): 60
Post-emerge Herbicidal Activity AMARE ([21]; 250 g ai/ha): 80
Pre-emerge Herbicidal Activity AMARE (phytotoxicity rating, scale 0-100) ([22]; 63 g ai/ha): 95
Pre-emerge Herbicidal Activity AMARE (phytotoxicity rating, scale 0-100) ([22]; 250 g ai/ha): 100
